Test results reported in ChEMBL document CHEMBL1157025, “Evaluation of aldose reductase inhibition and docking studies of 6'-nitro and 6',6''-dinitrorosmarinic acids” (Eur J Med Chem, 2010).

Molecular target: Aldo-keto reductase family 1 member B1 (Homo sapiens, UniProt P15121)
Assay: Inhibition of aldose reductase

IC50	Compound	IC50 (read-out: IC50)
–	O=C(/C=C/c1ccc(O)c(O)c1)O[C@H](Cc1cc(O)c(O)cc1[N+](=O)[O-])C(=O)O	1840 nM
3910 nM	O=C(/C=C/c1ccc(O)c(O)c1)O[C@H](Cc1ccc(O)c(O)c1)C(=O)O [ROSMARINIC ACID]	–
–	O=C(/C=C/c1cc(O)c(O)cc1[N+](=O)[O-])O[C@H](Cc1cc(O)c(O)cc1[N+](=O)[O-])C(=O)O	741 nM
